Article PMC10080691, “Enzyme-Responsive Double-Locked Photodynamic Molecular Beacon for Targeted Photodynamic Anticancer Therapy” (Journal of the American Chemical Society, 2023)

Target: cathepsin B (Homo sapiens, UniProt P07858)
Assay: Cathepsin B-responsive fluorescence activation
Format: biochemical
Details: 1 μM, cathepsin B only (1 unit mL-1), pH 5.0 buffer, 0.1% Tween 80, 37 °C
Method: To examine the response of PMB 1 toward MMP-2 and cathepsin B, its absorption and fluorescence spectra were monitored in the presence of these stimuli at 37 °C over a period of 25 h, using the non-cleavable analogue 14 as the negative control. For studying the MMP-2-responsive effect, MMP-2 (2 μg mL^–1) in PBS at pH 7.4 was used to mimic the high serum levels of this enzyme in patients with cancer.[68] The effect of cathepsin B (using a concentration of 1 unit mL^–1) was studied in the working buffer mentioned above at pH 5.0 to mimic the lysosomal environment.[69] […] Similar results were obtained for the study using cathepsin B in the buffer (Figure S8e–h). […] The more flexible ring-opening structure, however, might slightly increase the separation of the two moieties, leading to a lower FRET efficiency,[70] which could explain the small increase in fluorescence intensity. […] As expected, both the absorption and fluorescence spectra were not changed toward these two enzymes (Figure S9).
The fluorescence recovery was then determined for 1 under the aforementioned conditions, assuming that the fluorescence intensity of 8 at the same concentration in the same medium was the maximum fluorescence intensity that could be recovered. […]
All of the solutions were stirred continuously at 37 °C. The ir electronic absorption and fluorescence spectra were monitored over a period of 25 h. […]

CCN(CC)c1ccc2nc3ccc(/N=N/c4ccc(N(C)CCCNC(=O)OC[C@@H]5[C@@H]6CCc7nnn(CC(=O)NCCCC[C@@H]8NC(=O)CNC(=O)[C@H](CCCCN)NC(=O)[C@H](CCCNC(=N)N)NC(=O)[C@H](C(C)C)NC(=O)CNC(=O)[C@H](CC(C)C)NC(=O)[C@@H]9CCCN9C(=O)[C@H](CCCCN)NC(=O)[C@@H](N)CSCc9cc(COc%10ccc(C%11=C%12C(C)=C(I)C(/C=C/c%13ccc(OCCOCCOCCOC)cc%13)=[N+]%12[B-](F)(F)n%12c(/C=C/c%13ccc(OCCOCCOCCOC)cc%13)c(I)c(C)c%12%11)cc%10)cc(c9)CSC[C@@H](C(N)=O)NC(=O)[C@H](CCCCN)NC(=O)[C@H](CCCCN)NC(=O)CNC(=O)[C@H](CC(C)C)NC(=O)[C@H](Cc9ccccc9)NC(=O)CNC(=O)[C@H](CCCCN)NC(=O)CNC8=O)c7CC[C@@H]65)cc4)cc3[n+](-c3ccccc3)c2c1 [compound 1]
on/off ratio (fluorescence intensity at 25 h / initial intensity): ca. 2.7
